Literature values, collected in PubChem BioAssay AID1259410 (Chemical Carcinogenesis Research Information System (CCRIS), 2018).

Test system: rodent tumor promotion studies, tumor incidence
Assay: CCRIS tumor promotion studies

For `C=CC(N)=O`, the outcome (Carcinogen: METHYLNITROSOUREA [684-93-5], Doses [Carcinogen]: 50 MG/KG BW ONCE, Doses [Promoter]: 0, 20, 40 PPM IN DRINKING WATER AFTER CARCINOGEN ADMINISTRATION (STUDY DURATION: 30 WK), Doses [Promoter]: 0, 20, 40 PPM IN DRINKING WATER AFTER CARCINOGEN ADMINISTRATION (STUDY DURATION: 30 WK), Route [Carcinogen]: IP INJECTION, Route [Promoter]: DRINKING WATER, Species: RAT, Strain/Sex: SPRAGUE-DAWLEY/FEMALE (20/GROUP)) is given as “mammary gland: adenocarcinoma (significant increase in tumor incidence at 40 ppm”.

For `C=C/C=C\C1C2/C=C/CC(=O)O[C@@]34C[C@@H](C)[C@]5(O)C6C=C(C)C(=O)[C@@]6(O)CC(CO)=C[C@H]5[C@@H]3[C@@]4(C)COC(=O)C2C2C(/C=C/C=C/C=C/CCC)C12` (stereo partly specified), the outcome (Carcinogen: 7,12-DIMETHYLBENZ[A]ANTHRACENE, 57-97-6, Doses [Carcinogen]: 100 UG IN O.1 ML ACETONE, Doses [Promoter]: 0, 2 UG IN 0.1 ML OF METHANOL 2/WK FOR 16 WK BEGINNING 1 WK POST CARCINOGEN DOSE THEN 5 UG 2/WK FOR 13 WK (STUDY DURATIO, Route [Carcinogen]: DERMAL, Route [Promoter]: DERMAL, Species: MOUSE, Strain/Sex: CD-1/FEMALE) is given as “skin: tumor”.

For `N[C@@H](CC(=O)O)C(=O)O`, the outcome (Carcinogen: N-BUTYL-N-(4-HYDROXYBUTYL)NITROSAMINE, 3817-11-6, Doses [Carcinogen]: 0.05% IN DRINKING WATER FOR 4 WK, Doses [Promoter]: 0, 5% IN DRINKING WATER FOR 36 WK BEGINNING POST CARCINOGEN TREATMENT (STUDY DURATION: 40 WK), Route [Carcinogen]: ORAL, Route [Promoter]: ORAL, Species: RAT, Strain/Sex: F344/FEMALE) is given as “urinary bladder: carcinoma” and the outcome (Carcinogen: N-BUTYL-N-(4-HYDROXYBUTYL)NITROSAMINE, 3817-11-6, Doses [Carcinogen]: 0.05% IN DRINKING WATER FOR 4 WK, Doses [Promoter]: 0, 5% IN DRINKING WATER FOR 36 WK BEGINNING POST CARCINOGEN TREATMENT (STUDY DURATION: 40 WK), Route [Carcinogen]: ORAL, Route [Promoter]: ORAL, Species: RAT, Strain/Sex: F344/MALE) is given as “urinary bladder: carcinoma”.

For `CCOC(N)=O`, the outcome (Carcinogen: 7,12-DIMETHYLBENZ(A)ANTHRACENE, 57-97-6, Doses [Carcinogen]: 51.2 UG IN 100 UG ACETONE ONCE, Doses [Promoter]: 0, 10% IN ACETONE 2/WK FOR 50 WK BEGINNING 2 WK POST CARCINOGEN DOSE (STUDY DURATION: 52 WK), Route [Carcinogen]: DERMAL, Route [Promoter]: DERMAL, Species: MOUSE, Strain/Sex: HR/HR/MALE,FEMALE) is given as “skin: papilloma”.

In the case of `O=C1O[C@H]([C@@H](O)CO)C(O)=C1O`, the outcome (Carcinogen: 1,2-DIMETHYLHYDRAZINE, 540-73-8, Doses [Carcinogen]: 20 MG/KG 1/WK FOR 4 WK, Doses [Promoter]: 0, 5% IN DIET FOR 36 WK (STUDY DURATION: 40 WK), Route [Carcinogen]: SUBCUTANEOUS, Route [Promoter]: ORAL, Species: RAT, Strain/Sex: F344/MALE) is given as “colon: tumor”, the outcome (Carcinogen: BUTYLATED HYDROXYANISOLE, 25013-16-5, Doses [Carcinogen]: 2% IN DIET FOR 1 YR, Doses [Promoter]: 0, 2% IN DIET CONCOMITANTLY WITH CARCINOGEN FOR 1 YR (STUDY DURATION: 1 YR), Route [Carcinogen]: ORAL, Route [Promoter]: ORAL, Species: RAT, Strain/Sex: F344/MALE) is given as “forestomach: squamous cell carcinoma” and the outcome (Carcinogen: METHYLNITROSOUREA, 684-93-5, Doses [Carcinogen]: 20 MG/KG 2/WK FOR 4 WK, Doses [Promoter]: 0, 5% IN DIET BEGINNING POST CARCINOGEN TREATMENT AND CONTINUING FOR 32 WK (STUDY DURATION: 36 WK), Route [Carcinogen]: INTRAPERITONEAL, Route [Promoter]: ORAL, Species: RAT, Strain/Sex: F344/MALE) is given as “urinary bladder: papilloma; forestomach: carcinoma”. For the same compound, the outcome (Carcinogen: N-BUTYL-N-4(HYDROXYBUTYL)NITROSAMINE, 3817-11-6, Doses [Carcinogen]: 0.05% IN DRINKING WATER FOR 2 WK, Doses [Promoter]: 0, 5% IN DIET STARTING POST CARCINOGEN AND CONTINUING FOR 22 WK, LEFT URETER LIGATED 8 D POST CARCINOGEN (STUDY DURATION, Route [Carcinogen]: ORAL, Route [Promoter]: ORAL, Species: RAT, Strain/Sex: F344/MALE) was “bladder: papilloma”, the outcome (Carcinogen: N-BUTYL-N-(4-HYDROXYBUTYL)-NITROSAMINE, 3817-11-6, Doses [Carcinogen]: 0.05% IN DRINKING WATER FOR 4 WK, Doses [Promoter]: 0, 5% IN DIET FOR 32 WK BEGINNING POST CARCINOGEN TREATMENT (STUDY DURATION: 36 WK), Route [Carcinogen]: ORAL, Route [Promoter]: ORAL, Species: RAT, Strain/Sex: F344/MALE) was “urinary bladder: papilloma, carcinoma” and the outcome (Carcinogen: N-BUTYL-N-(4-HYDROXYBUTYL)-NITROSAMINE, 3817-11-6, Doses [Carcinogen]: 0.05% IN DRINKING WATER FOR 4 WK, Doses [Promoter]: 0, 5% IN DIET FOR 32 WK BEGINNING POST CARCINOGEN TREATMENT (STUDY DURATION: 36 WK), Route [Carcinogen]: ORAL, Route [Promoter]: ORAL, Species: RAT, Strain/Sex: LEW/MALE) was “urinary bladder: papilloma, carcinoma”. The outcome (Carcinogen: N-BUTYL-N-(4-HYDROXYBUTYL)NITROSAMINE [3817-11-6], Doses [Carcinogen]: 0.05% IN DRINKING WATER FOR 4 WK (STUDY DURATION: 40 WK), Doses [Promoter]: 2.5% IN DIET FOR 18 WK BEGINNING IMMEDIATELY POST LAST CARCINOGEN DOSE (STUDY DURATION: 40 WK), Route [Carcinogen]: ORAL, Route [Promoter]: ORAL, Species: RAT, Strain/Sex: F344/MALE) was “urinary bladder: tumor”, the outcome (Carcinogen: N-BUTYL-N-(4-HYDROXYBUTYL)NITROSAMINE, 3817-11-6, Doses [Carcinogen]: 0.05% IN DRINKING WATER FOR 2 WK, Doses [Promoter]: 0, 5% IN DIET FOR 32 WK BEGINNING POST CARCINOGEN TREATMENT (STUDY DURATION: 34 WK), Route [Carcinogen]: ORAL, Route [Promoter]: ORAL, Species: RAT, Strain/Sex: F344/MALE) was “urinary bladder: papilloma, carcinoma” and the outcome (Carcinogen: N-BUTYL-N-(4-HYDROXYBUTYL)NITROSAMINE, 3817-11-6, Doses [Carcinogen]: 0.05% IN DRINKING WATER FOR 4 WK, Doses [Promoter]: 0, 5% IN BASAL DIET CONTAINING 1.5% SODIUM BICARBONATE FOR 32 WK (STUDY DURATION: 36 WK), Route [Carcinogen]: ORAL, Route [Promoter]: ORAL, Species: RAT, Strain/Sex: F344/MALE) was “urinary bladder: carcinoma”. The outcome (Carcinogen: N-BUTYL-N-(4-HYDROXYBUTYL)NITROSAMINE, 3817-11-6, Doses [Carcinogen]: 0.05% IN DRINKING WATER FOR 4 WK, Doses [Promoter]: 0, 5% IN DIET FOR 32 WK (STUDY DURATION: 36 WK), Route [Carcinogen]: ORAL, Route [Promoter]: ORAL, Species: RAT, Strain/Sex: F344/MALE) was “urinary bladder: papilloma, carcinoma”, the outcome (Carcinogen: N-BUTYL-N-(4-HYDROXYBUTYL)NITROSAMINE, 3817-11-6, Doses [Carcinogen]: 0.05% IN DRINKING WATER FOR 4 WK, Doses [Promoter]: 0, 5% IN DIET FOR 32 WK BEGINNING POST CARCINOGEN TREATMENT (STUDY DURATION: 36 WK), Route [Carcinogen]: ORAL, Route [Promoter]: ORAL, Species: RATS, Strain/Sex: F344/SHI/MALE) was “bladder: papilloma, carcinoma” and the outcome (Carcinogen: N-BUTYL-N-(4-HYDROXYBUTYL)NITROSAMINE, 3817-11-6, Doses [Carcinogen]: 0.05% IN DRINKING WATER FOR 4 WK, Doses [Promoter]: 0, 5% IN DIET FOR 32 WK POST CARCINOGEN DOSE (STUDY DURATION: 36 WK), Route [Carcinogen]: ORAL, Route [Promoter]: ORAL, Species: RAT, Strain/Sex: F344/MALE) was “bladder: carcinoma or papilloma”. For the same compound, the outcome (Carcinogen: N-METHYL-N-NITROSOUREA, 684-93-5, Doses [Carcinogen]: 20 MG/KG 2/WK FOR 4 WK, Doses [Promoter]: 0, 5% IN DIET FOR 32 WK (STUDY DURATION: 32 WK), Route [Carcinogen]: INTRAPERITONEAL, Route [Promoter]: ORAL, Species: RAT, Strain/Sex: F344/MALE) was “forestomach: papilloma, carcinoma; urinary bladder: papilloma, carcinoma”, the outcome (Carcinogen: N-[4-(5-NITRO-2-FURYL)-2-THIAZOLYL]FORMAMIDE, 24554-26-5, Doses [Carcinogen]: 0.2% IN DIET FOR 6 WK, Doses [Promoter]: 0, 5% IN PROLAB DIET FOR 72 WK BEGINNING POST CARCINOGEN TREATMENT (STUDY DURATION: 78 WK), Route [Carcinogen]: ORAL, Route [Promoter]: ORAL, Species: RAT, Strain/Sex: F344/MALE) was “urinary bladder: carcinoma, carcinoma or papilloma” and the outcome (Carcinogen: N-bis(2-hydroxypropyl)nitrosamine (DHPN) (53609-64-6), Doses [Carcinogen]: 0.1% (w/v) in drinking water for 3 wk, then surgery for acid reflux esophagitis, study duration 34 wk, Doses [Promoter]: 0 (basal diet), 1% ascorbic acid, 1% ascorbic acid with 0.2% sodium nitrite, study duration 32 wk after first promoter d, Doses [Promoter]: 0 (basal diet), 1% ascorbic acid, 1% ascorbic acid with 0.2% sodium nitrite, study duration 32 wk after first promoter d, Route [Carcinogen]: Oral, Route [Promoter]: Oral, Species: Rat, Strain/Sex: F344/Male (24/group)) was “esophagus (p1-p4): papilloma; significant only for combined treatment in p4 segm”. For the same compound, the outcome (Carcinogen: N-methyl-N'-nitro-N-nitrosoguanidine (70-25-7), Doses [Carcinogen]: 0.01% in drinking water for 10 wk for initiation of glandular stomach tumors, 100 mg/kg intragastrically after 16 hr st, Doses [Promoter]: 0.1% or 1.0% in the diet from wk 11 to end of study in combination with 0.05%, 0.1%, or 0.2% sodium nitrite in drinki, Route [Carcinogen]: Oral and Intragastric, Route [Promoter]: Oral, Species: Rat, Strain/Sex: F344/Male (15/15)/(14/15)(15/15)(15/15)(15/15)(15/15)(14/15)) was “forestomach: squamous cell carcinoma, papilloma increased in incidence and/or se”.
